The term IC50 denotes the concentration that inhibits the measured activity by half. A high value points to weaker potency.

Consider 4 compounds from paper PMC5481817, “Developing Targeted Hybrid Imaging Probes by Chelator Scaffolding” (Bioconjugate chemistry, 2017).

Experiment [1] deals with T1, integrin αvβ3 (Homo sapiens, UniProt P05106+P06756).
T1 construct: endogenous in cells; host or cells: human melanoma M21 cells (gift from D. A. Cheresh)
In words: Integrin binding affinity assay (displacement of [125I]-c(RGDyV)) on M21 cells. The method, then: (§1) Receptor binding affinities were evaluated via a displacement cell-binding assay for metal free as well as metal bound ([^natGa]) conjugates. Binding of nonradioactive gallium was performed in analogy to the radiolabeling procedure but instead of the generator eluate a 100-fold molar excess of gallium bromide (GaBr3) dissolved in 100 μL 0.1 N HCl was used. Cells were prepared as described below and incubated with increasing concentrations [0.001–1000 nM] of competitor in triplicate. After addition of corresponding iodinated radioligand the 96-well MulitScreen Filter Plates HTS (1 μm glass fiber filter, Merck Millipore, Darmstadt, Germany) were incubated for 1 or 2 h at RT under shaking conditions (Compact shaker KS-15 control, 200/min) and after a washing step the remaining activity on the filter was measured in the γ-counter. The receptor affinity of DOTA-minigastrin11 as well as c(RGDyV) were determined under the corresponding conditions as a reference. IC50 values were calculated by using nonlinear curve fitting with following formula NS+SB/(1+x/IC50) on Origin 6.1 software (Northampton, MA, USA). A detailed description regarding iodination can be found in the Supporting Information.
Integrin binding affinity assay was adapted from Yun Wu et al.[31] Briefly, M21 cells were washed two times with phosphate buffered saline followed by suspension in binding buffer (=20 mM TRIS pH 7.4 + 150 mM NaCl + 2 mM CaCl2 + 1 mM MgCl2 + 1 mM MnCl2 0.1% BSA). 96-well plates were washed with 200 μL of 20 mM TRIS-buffer and seeded with 1 × 10^6 cells/well (10^7 cells/mL). After 10 min of incubation in the presence of the competitor {([^natGa])Sulfo-Cy7-FSC-RGD or c(RGDyV) diluted in binding buffer)} volume was adjusted to 200 μL/well by adding 50 μL of radioligand ([^125I]-c(RGDyV), 4.5 × 10^4 cpm) and the plate was left for 2 h at RT. Finally the supernatant was removed by vacuum and each well was washed three times with 200 μL ice-cold binding buffer.
In general terms: Displacement assays read how much labelled ligand stays bound in the presence of the test substance.

Experiment [2] concerns the target T2, human CCK-2 receptor (Homo sapiens, UniProt P32239).
T2 construct: expressed in transfected cells; host or cells: A431 human squamous carcinoma cells (gift from L. Aloj)
T2 sequence (P32239 1-447): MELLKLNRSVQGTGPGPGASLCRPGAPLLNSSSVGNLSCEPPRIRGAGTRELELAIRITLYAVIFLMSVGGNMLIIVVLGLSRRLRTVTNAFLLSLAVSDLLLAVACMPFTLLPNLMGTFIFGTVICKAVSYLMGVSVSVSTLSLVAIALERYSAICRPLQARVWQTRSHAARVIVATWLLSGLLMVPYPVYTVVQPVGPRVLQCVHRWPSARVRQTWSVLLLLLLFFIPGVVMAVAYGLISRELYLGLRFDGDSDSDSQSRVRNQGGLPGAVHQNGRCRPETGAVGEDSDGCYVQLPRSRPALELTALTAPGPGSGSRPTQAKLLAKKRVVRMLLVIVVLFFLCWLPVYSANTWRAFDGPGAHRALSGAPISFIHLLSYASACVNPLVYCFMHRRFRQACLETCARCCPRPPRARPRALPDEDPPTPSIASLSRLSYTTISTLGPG
The experiment in a line: Whole cell receptor binding affinity (displacement of [125I]-[Leu15]-Gastrin I) on A431-CCK2R cells. How it is done:
as §1
A431-CCK2R cells were diluted in 50 mM HEPES buffer (pH 7.3) containing 5 mM MgCl2 and 0.3% BSA to a density of 5 × 10^6 cells/mL. 96-well plates were washed with 200 μL of 10 mM TRIS buffered saline (pH 7.3) and 100 μL of cell suspension were added to each well. Hereafter 50 μL of competitor solution {([^natGa])Sulfo-Cy7-FSC-MG or DOTA-minigastrin^11 diluted in 20 mM HEPES; 10 mM MgCl2 and 0.1% BSA} of each concentration were added and left for 10 min at RT. After incubation with 50 μL of radioligand (human [^125I]-[Leu^15]-Gastrin I 4.5 × 10^4 cpm) for 1 h the plate was washed twice with 200 μL TRIS-buffer/well.

The subject of experiment [3] is A431-CCK2R cells. In words: Fluorescence measured cell specificity, A431-CCK2R. In kind it is cell-based, human. Particulars: 2 h incubation, 3 nM ligand. The method, then: Fluorescence assays were conducted similarly to the internalization assays except for using lower cell numbers and determining only the cellbound fraction. Briefly, A431-CCK2R, M21, and M21-L cells were diluted in corresponding media to a density of 2 × 10^6 cells/mL. Aliquots of 0.5 mL were transferred to Eppendorf tubes—six technical replicates for A431-CCK2R unblocked and blocked and M21/M21-L, respectively—and treated in the same manner as described above. The nonradiolabeled particular ligand was added to a final concentration of 3 nM and the tubes were kept in an incubator (Incubator hood TH15 and Compact shaker KS-15 control, Edmund Bühler GmbH, Hechingen, Germany) at 37 °C for 2 h under vigorously shaking (420/min). After centrifugation (2 min, 5000 rpm) washing steps were performed as mentioned before. […] Fluorescence intensity was measured with Tecan Infinite 200 PRO series multiplate reader (Tecan Trading AG, Switzerland) by using Tecan Icontrol 1.1 software. Parameters were set as follows: Fluorescence Top reading; excitation/emission wavelength 740/790 nm; excitation bandwidth 9 nm; emission bandwidth 20 nm; gain optimal; number of flashes 25; integration time 25 μs. Results were calculated and expressed as percentage of cell-bound fluorescence in relation to the standards sample.

The test system of experiment [4] is A431-CCK2R/A431-mock tumor xenograft-bearing BALB/c nude mice. In words: Near-infrared fluorescence imaging, A431-CCK2R/A431-mock xenografts. In kind it is in vivo, mouse. The method, then:
All animal experiments were conducted in accordance with regulations and guidelines of the Czech Animal Protection Act (No. 246/1992), and with the approval of the Czech Ministry of Education, Youth, and Sports (MSMT-22421/2013–12), and the institutional Animal Welfare Committee of the Faculty of Medicine and Dentistry of Palacky University in Olomouc. The studies were performed using female 8–10-week-old athymic BALB/c nude mice (Envigo, Horst, The Netherlands). […]
Tumor xenografts were established near the front shoulder of mice by subcutaneous injection of 5 × 10^6 cells (U-87 MG) or 2 × 10^6 cells (A431-CCK2R) and the same amount of A431-mock cells as a control in 200 μL appropriate medium and Matrigel (1:1). […] Tumors, blood, muscle tissue, and organs were extracted, weighed, and activity uptake of the samples was measured in the gamma counter. Results were expressed as percentage of injected dose per gram tissue (% ID/g). […] After reconstruction, acquired data was viewed and analyzed with PMOD software (PMOD Technologies Ltd., Zurich, Switzerland). […] Near-infrared in vivo fluorescence imaging was performed with an In-Vivo MS FX PRO small animal imaging system (Bruker Biospin Corporation, Woodbridge, CT, USA). […] An appropriate filter set (excitation = 730 nm and emission = 790 nm) was used for acquiring the Sulfo-Cy7-FSC-peptide - fluorescence in vivo. […]

[5] abbreviates: metal-bound ([natGa]) complexed form.

*1 amine or outer side, *2 acyl side, *3 side chain or, on linkers, in order; H or OH if unused. Where a SMILES comes first, the peptide text is derived from it. Bridges are numbered along the chain shown (N, C = ends). Roman numbers before positions name the chains, in order. [ ]: non-standard residue; d: D form. X2 = CC1=CC(=O)N(O)CCCC(NC(=O)CCN2C(=O)CC([*:2])C2=O)C(=O)OCCC(C)=CC(=O)N(O)CCCC(NC(=O)CCN2C(=O)CC([*:1])C2=O)C(=O)OCCC(C)=CC(=O)N(O)CCCC(NC(=O)CCCCC[N+]2=C(C=CC3=CC(=CC=C4N(C)c5ccc(S(=O)(=O)O)cc5C4(C)C)CCC3)C(C)(C)c3cc(S(=O)(=O)[O-])ccc32)C(=O)OCC1; Mpa = O=C(O)CCS

T1 sequence (P06756 31-889 limits assumed): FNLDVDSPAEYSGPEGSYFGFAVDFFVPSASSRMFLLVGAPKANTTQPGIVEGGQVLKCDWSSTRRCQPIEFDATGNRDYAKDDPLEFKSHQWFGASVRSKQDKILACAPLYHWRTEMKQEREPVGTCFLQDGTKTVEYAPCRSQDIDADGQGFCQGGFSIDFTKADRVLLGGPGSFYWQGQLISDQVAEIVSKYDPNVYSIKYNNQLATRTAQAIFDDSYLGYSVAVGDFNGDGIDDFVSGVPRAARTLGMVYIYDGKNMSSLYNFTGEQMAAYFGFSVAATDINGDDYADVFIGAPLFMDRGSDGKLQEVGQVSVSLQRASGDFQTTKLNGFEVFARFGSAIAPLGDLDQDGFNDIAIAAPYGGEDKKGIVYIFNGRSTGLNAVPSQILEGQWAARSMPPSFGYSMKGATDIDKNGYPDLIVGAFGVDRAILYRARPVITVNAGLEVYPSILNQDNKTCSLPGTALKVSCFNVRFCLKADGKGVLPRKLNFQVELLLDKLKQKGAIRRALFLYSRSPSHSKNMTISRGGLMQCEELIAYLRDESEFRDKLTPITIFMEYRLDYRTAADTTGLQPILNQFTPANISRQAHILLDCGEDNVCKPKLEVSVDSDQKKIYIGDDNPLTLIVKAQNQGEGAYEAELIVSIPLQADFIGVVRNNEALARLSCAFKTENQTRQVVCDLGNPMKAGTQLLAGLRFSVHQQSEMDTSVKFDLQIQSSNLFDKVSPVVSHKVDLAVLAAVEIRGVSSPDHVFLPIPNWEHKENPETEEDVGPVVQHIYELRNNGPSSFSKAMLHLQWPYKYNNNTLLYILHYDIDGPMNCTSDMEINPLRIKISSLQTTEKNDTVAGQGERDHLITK
T1 sequence (P06756 891-1048 partner limits assumed): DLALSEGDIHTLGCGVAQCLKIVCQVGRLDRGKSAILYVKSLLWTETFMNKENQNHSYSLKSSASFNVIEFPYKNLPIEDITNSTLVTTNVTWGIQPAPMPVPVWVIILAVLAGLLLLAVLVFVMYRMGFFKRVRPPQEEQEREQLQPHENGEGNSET
T1 sequence (P05106 27-788): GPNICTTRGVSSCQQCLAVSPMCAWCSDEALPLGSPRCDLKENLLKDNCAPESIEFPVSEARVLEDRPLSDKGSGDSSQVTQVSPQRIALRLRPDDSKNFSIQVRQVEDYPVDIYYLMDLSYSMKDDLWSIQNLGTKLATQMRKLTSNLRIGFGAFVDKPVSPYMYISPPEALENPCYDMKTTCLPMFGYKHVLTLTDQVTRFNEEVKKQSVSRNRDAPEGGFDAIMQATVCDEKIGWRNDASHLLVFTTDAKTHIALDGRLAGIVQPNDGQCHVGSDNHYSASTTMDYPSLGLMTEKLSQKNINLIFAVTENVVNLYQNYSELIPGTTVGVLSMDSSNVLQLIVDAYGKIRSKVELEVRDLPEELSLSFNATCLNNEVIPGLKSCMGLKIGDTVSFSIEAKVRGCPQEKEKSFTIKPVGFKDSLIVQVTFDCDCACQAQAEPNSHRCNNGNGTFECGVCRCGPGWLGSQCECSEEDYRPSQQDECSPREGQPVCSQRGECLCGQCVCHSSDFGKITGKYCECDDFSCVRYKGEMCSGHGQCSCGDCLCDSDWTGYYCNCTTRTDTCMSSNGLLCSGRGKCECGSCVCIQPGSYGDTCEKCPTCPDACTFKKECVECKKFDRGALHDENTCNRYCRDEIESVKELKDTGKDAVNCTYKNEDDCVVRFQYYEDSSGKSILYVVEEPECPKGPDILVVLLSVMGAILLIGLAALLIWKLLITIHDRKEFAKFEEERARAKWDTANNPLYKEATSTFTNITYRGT

`CC(C)[C@@H]1NC(=O)[C@@H](Cc2ccc(O)cc2)NC(=O)[C@H](CC(=O)O)NC(=O)CNC(=O)[C@H](CCCNC(=N)N)NC1=O` [c(RGDyV), reference compound] returned a half-inhibitory concentration (IC50) in experiment [1] (metal-free conjugate or reference peptide, radioligand [125I]-c(RGDyV), 2 h RT) of 15.2 ± 2.86 nM.
`CC1=CC(=O)N(O)CCCC(NC(=O)CCN2C(=O)CC(SCCOCCOCCOCCOCCC(=O)NCCCC[C@@H]3NC(=O)[C@@H](Cc4ccccc4)NC(=O)[C@H](CC(=O)O)NC(=O)CNC(=O)[C@H](CCCNC(=N)N)NC3=O)C2=O)C(=O)OCCC(C)=CC(=O)N(O)CCCC(NC(=O)CCN2C(=O)CC(SCCOCCOCCOCCOCCC(=O)NCCCC[C@@H]3NC(=O)[C@@H](Cc4ccccc4)NC(=O)[C@H](CC(=O)O)NC(=O)CNC(=O)[C@H](CCCNC(=N)N)NC3=O)C2=O)C(=O)OCCC(C)=CC(=O)N(O)CCCC(NC(=O)CCCCC[N+]2=C(C=CC3=CC(=CC=C4N(C)c5ccc(S(=O)(=O)O)cc5C4(C)C)CCC3)C(C)(C)c3cc(S(=O)(=O)[O-])ccc32)C(=O)OCC1` (stereo partly drawn) [[^natGa]Sulfo-Cy7-FSC-RGD, metal not drawn]: in experiment [1] ([natGa] bound form), the IC50 was found to be 0.81 ± 0.19 nM.
`CSCC[C@H](NC(=O)[C@H](Cc1c[nH]c2ccccc12)NC(=O)CNC(=O)[C@H](Cc1ccc(O)cc1)NC(=O)[C@H](C)NC(=O)[C@@H](CCC(=O)O)NC(=O)CCSC1CC(=O)N(CCC(=O)NC2CCCN(O)C(=O)C=C(C)CCOC(=O)C(NC(=O)CCN3C(=O)CC(SCCC(=O)N[C@H](CCC(=O)O)C(=O)N[C@@H](C)C(=O)N[C@@H](Cc4ccc(O)cc4)C(=O)NCC(=O)N[C@@H](Cc4c[nH]c5ccccc45)C(=O)N[C@@H](CCSC)C(=O)N[C@@H](CC(=O)O)C(=O)N[C@@H](Cc4ccccc4)C(N)=O)C3=O)CCCN(O)C(=O)C=C(C)CCOC(=O)C(NC(=O)CCCCC[N+]3=C(C=CC4=CC(=CC=C5N(C)c6ccc(S(=O)(=O)O)cc6C5(C)C)CCC4)C(C)(C)c4cc(S(=O)(=O)[O-])ccc43)CCCN(O)C(=O)C=C(C)CCOC2=O)C1=O)C(=O)N[C@@H](CC(=O)O)C(=O)N[C@@H](Cc1ccccc1)C(N)=O` (stereo partly drawn) [[^natGa]Sulfo-Cy7-FSC-MG, metal not drawn] (I: [Mpa][dE]AYGWMDF-NH2 / II: [Mpa][dE]AYGWMDF-NH2; linker I:1-II:1 via X2) yielded an IC50 in experiment [2] (setting [5]) of 2.68 ± 0.53 nM.
For `CSCC[C@H](NC(=O)[C@H](Cc1c[nH]c2ccccc12)NC(=O)CNC(=O)[C@H](Cc1ccc(O)cc1)NC(=O)[C@H](C)NC(=O)[C@@H](CCC(=O)O)NC(=O)CCSC1CC(=O)N(CCC(=O)NC2CCCN(O)C(=O)C=C(C)CCOC(=O)C(NC(=O)CCN3C(=O)CC(SCCC(=O)N[C@H](CCC(=O)O)C(=O)N[C@@H](C)C(=O)N[C@@H](Cc4ccc(O)cc4)C(=O)NCC(=O)N[C@@H](Cc4c[nH]c5ccccc45)C(=O)N[C@@H](CCSC)C(=O)N[C@@H](CC(=O)O)C(=O)N[C@@H](Cc4ccccc4)C(N)=O)C3=O)CCCN(O)C(=O)C=C(C)CCOC(=O)C(NC(=O)CCCCC[N+]3=C(C=CC4=CC(=CC=C5N(C)c6ccc(S(=O)(=O)O)cc6C5(C)C)CCC4)C(C)(C)c4cc(S(=O)(=O)[O-])ccc43)CCCN(O)C(=O)C=C(C)CCOC2=O)C1=O)C(=O)N[C@@H](CC(=O)O)C(=O)N[C@@H](Cc1ccccc1)C(N)=O` (stereo partly drawn) [Sulfo-Cy7-FSC-MG, Sulfo-Cyanine7-FSC-(mal-MG11)2] (I: [Mpa][dE]AYGWMDF-NH2 / II: [Mpa][dE]AYGWMDF-NH2; linker I:1-II:1 via X2), the figures for the Fluorescence-determined cell uptake in experiment [3] (blocked A431-CCK2R cells) and in experiment [3] (nonblocked A431-CCK2R cells) were 1.65 ± 0.47% and 10.78 ± 1.04%, respectively. The “optical imaging tumor contrast” value in experiment [4] (2 h after injection) is recorded as “moderate contrast”; in experiment [4] (5 h up to 3 days p.i.), “excellent contrast”. Moreover, the half-maximal inhibitory concentration (IC50) in experiment [2] (setting [5]) was found to be 2.68 ± 0.53 nM; in experiment [2] (metal-free (uncomplexed) conjugate or reference peptide, radioligand [125I]-[Leu15]-Gastrin I, 1 h RT), 2.81 ± 0.66 nM.
